Data from patent US11976061B2, “Preparation of benzimidazolone derivatives as novel diacylglyceride O-acyltransferase 2 inhibitors” (Merck Sharp & Dohme LLC, priority 2020, dated 2024).
Where two headings read alike, the source gives them in different places.

Target: T1, human DGAT2 (hDGAT2) (Homo sapiens, UniProt Q96PD7)
T1 construct: made in house; host or cells: Sf-9 insect cells (baculovirus), membrane fraction
T1 sequence (Q96PD7 1-388): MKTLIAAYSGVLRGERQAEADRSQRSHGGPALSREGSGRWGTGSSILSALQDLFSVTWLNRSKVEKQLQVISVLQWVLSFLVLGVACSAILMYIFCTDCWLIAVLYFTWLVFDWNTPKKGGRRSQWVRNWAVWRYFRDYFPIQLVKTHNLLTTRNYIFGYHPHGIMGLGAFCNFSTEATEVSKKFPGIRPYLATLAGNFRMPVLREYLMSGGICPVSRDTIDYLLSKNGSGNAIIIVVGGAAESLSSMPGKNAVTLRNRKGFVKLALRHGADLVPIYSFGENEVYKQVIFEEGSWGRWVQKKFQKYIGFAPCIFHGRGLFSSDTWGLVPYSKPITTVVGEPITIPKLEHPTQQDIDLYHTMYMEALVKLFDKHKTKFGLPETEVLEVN
Experiment: DGAT2 Enzymatic Activity Assay
Assay type: biochemical
Conditions: membrane prep of Sf-9 cells expressing hDGAT2, 25 μM diolein, 5 μM 13C oleoyl-CoA, 13C18-triolein by LC/MS/MS
Description: Insect Cell Expression and Membrane Preparation
Sf-9 insect cells were maintained in Grace's insect cell culture medium with 10% heated-inactivated fetal bovine serum, 1% Pluronic F-68 and 0.14 μg/ml Kanamycine sulfate at 27° C. in a shaker incubator. After infection with untagged baculovirus expressing human DGAT2 (hDGAT2) at multiplicity of infection (MOI) 3 for 48 hours, cells were harvested. Cell pellets were suspended in buffer containing 10 mM Tris-HCl pH 7.5, 1 mM EDTA, 250 mM sucrose and Complete Protease Inhibitor Cocktail (Sigma Aldrich), and sonicated on ice. Cell debris were removed by centrifugation at 2000×g for 15 minutes. Membrane fractions were isolated by ultracentrifugation (100,000×g), resuspended in the same buffer, and frozen (−80° C.) for later use. The protein concentration was determined with the Pierce™ BCA Protein Assay Kit (Thermo Fisher Scientific). Expression of protein levels was analyzed by immunoblotting with rabbit anti-DGAT2 antibody (Abcam, ab102831) and donkey anti-rabbit IgG H&L Alexa Fluor® 647 (Abcam, ab150075) followed by detection using Typhoon FLA9000 (GE Healthcare).
LC/MS/MS analyses were performed using Thermal Fisher's LX4-TSQ Vantage system. This system consists of an Agilent binary high-performance liquid chromatography (HPLC) pump and a TSQ Vantage triple quadrupole MS/MS instrument. For each sample, 2 μL samples from the top organic layer of in-plate liquid-liquid extraction were injected onto a Thermo Betabasic C4 column (2.1 mm×20 mm, 5 μm particle size). The samples were then eluted using the following conditions; mobile phase: Isopropanol:acetonitrile/10 mM ammonium formate=50/35/15 (v/v/v), flow rate: 0.8 mL/min, temperature: 25° C. Data was acquired in positive mode using a heated electrospray ionization (HESI) interface. The operational parameters for the TSQ Vantage MS/MS instrument were a spray voltage of 3000 V, capillary temperature of 280° C., vaporizer temperature 400° C., sheath gas 45 arbitrary unit, Aux gas 10 arbitrary units, S-lens 165 and collision gas 1.0 mTorr. […] (SRM) chromatograms of ^13C18-triolein (Q1: 920.8>Q3: 621.3) and internal standard ^13C21-triolein (Q1: 923.8>Q3: 617.3) were collected for 33 sec. The peak area was integrated by Xcalibur Quan software. The ratio between the ^13C18triolein generated in the reaction and spiked in internal standard ^13C21-triolein was used to generate percentage inhibition and IC50 values. Compound percentage inhibition was calculated by the following formula: Inhibition %=1−[(compound response−low control)/(high control−low control)]×100%. Potent compounds were titrated and IC50 were calculated by 4 parameter sigmoidal curve fitting formula.
DGAT2 Enzymatic Activity Assay
DGAT2 activity was determined by measuring the amount of enzymatic product ^13C18-triolein (^13C-1,2,3-Tri(cis-9-octadecenoyl)glycerol) using the membrane prep mentioned above. The assay was carried out in ABgene 384-well assay plates in a final volume of 25 μL at rt. The assay mixture contained the following: assay buffer (100 mM Tris·Cl, pH 7.0, 20 mM MgCl2, 5% ethanol), 25 μM of diolein, 5 μM of ^13C oleoyl-CoA and 8 ng/μL of DGAT2 membrane.

| Structure (SMILES) | IC50 (read-out: DGAT2 IC50) | IC50 (read-out: Human DGAT2 IC50) |
| --- | --- | --- |
| CC(C)n1c(=O)n(-c2cccc(C3CC3(F)F)c2)c2ccc(C(=O)NC3(C)CS(=O)(=O)C3)cc21 (stereo not shown) [Example 22, 1-(3-(2,2-Difluorocyclopropyl)phenyl)-3-isopropyl-N-(3-methyl-1,1-dioxidothietan-3-yl)-2-oxo-2,3-dihydro-1H-benzo[d]imidazole-5-carboxamide] |  | 66 nM |
| CC(C)n1c(=O)n(-c2cccc(C(N)=O)c2)c2ccc(C(=O)NC3(C)CCS(=O)(=O)CC3)cc21 [Example 55, 1-(3-carbamoylphenyl)-3-isopropyl-N-(4-methyl-1,1-dioxidotetrahydro-2H-thiopyran-4-yl)-2-oxo-2,3-dihydro-1H-benzo[d]imidazole-5-carboxamide] | > 9990 nM |  |
| CCOc1cc(-n2c(=O)n(C(C)C)c3cc(C(=O)NC4(C)CS(=O)(=O)C4)c(F)cc32)c(F)cn1 [Example 116, 1-(2-ethoxy-5-fluoropyridin-4-yl)-6-fluoro-3-isopropyl-N-(3-methyl-1,1-dioxidothietan-3-yl)-2-oxo-2,3-dihydro-1H-benzo[d]imidazole-5-carboxamide] | 93 nM |  |
| CC(C)n1c(=O)n(-c2cccc(S(C)(=O)=O)c2)c2ccc(C(=O)NC3(C)CCS(=O)(=O)CC3)cc21 [Example 58, 3-isopropyl-N-(4-methyl-1,1-dioxidotetrahydro-2H-thiopyran-4-yl)-1-(3-(methylsulfonyl)phenyl)-2-oxo-2,3-dihydro-1H-benzo[d]imidazole-5-carboxamide] | > 9990 nM |  |
| CC(C)n1c(=O)n(-c2cc(OC(F)F)ncc2F)c2ccc(C(=O)NC3(C)CS(=O)(=O)C3)cc21 [Example 20, 1-(2-(difluoromethoxy)-5-fluoropyridin-4-yl)-3-isopropyl-N-(3-methyl-1,1-dioxidothietan-3-yl)-2-oxo-2,3-dihydro-1H-benzo[d]imidazole-5-carboxamide] |  | 76 nM |
| CC(C)n1c(=O)n(-c2cccc(OC(F)(F)C(F)F)c2)c2ncc(C(=O)N[C@@]3(C)CCS(=O)(=O)C3)cc21 [Example 94, 1-isopropyl-N-[(3S)-3-methyl-1,1-dioxo-thiolan-3-yl]-2-oxo-3-[3-(1,1,2,2-tetrafluoroethoxy)phenyl]imidazo[4,5-b]pyridine-6-carboxamide] | 108 nM |  |
| CNS(=O)(=O)c1cccc(-n2c(=O)n(C(C)C)c3cc(C(=O)NC4(C)CCS(=O)(=O)CC4)ccc32)c1 [Example 57, 3-isopropyl-N-(4-methyl-1,1-dioxidotetrahydro-2H-thiopyran-4-yl)-1-(3-(N-methylsulfamoyl)phenyl)-2-oxo-2,3-dihydro-1H-benzo[d]imidazole-5-carboxamide] | > 9990 nM |  |
| CC(C)n1c(=O)n(-c2cc(OC(F)F)ccn2)c2ccc(C(=O)NC3(C)CS(=O)(=O)C3)cc21 [Example 12, 1-[4-(difluoromethoxy)-2-pyridyl]-3-isopropyl-N-(3-methyl-1,1-dioxo-thietan-3-yl)-2-oxo-benzimidazole-5-carboxamide] |  | 122 nM |
| CC(C)n1c(=O)n(-c2cccc(OC(F)(F)F)c2)c2ccc(C(=O)NC3(C)CCS(=O)(=O)CC3)cc21 [Example 10, 3-isopropyl-N-(4-methyl-1,1-dioxo-thian-4-yl)-2-oxo-1-[3-(trifluoromethoxy)phenyl]benz-imidazole-5-carboxamide] |  | 153 nM |

Now from value to compound:

| IC50 (read-out: DGAT2 IC50) | IC50 (read-out: Human DGAT2 IC50) | Structure (SMILES) |
| --- | --- | --- |
| 692 nM |  | CC(C)Oc1cccc(-n2c(=O)n(C(C)C)c3cc(C(=O)NC4(C)CS(=O)(=O)C4)cnc32)c1 [Example 100, 3-(3-isopropoxyphenyl)-1-isopropyl-N-(3-methyl-1,1-dioxo-thietan-3-yl)-2-oxo-imidazo[4,5-b]pyridine-6-carboxamide] |
| 202 nM |  | CC1(NC(=O)c2ccc3c(c2)n(CC(F)(F)F)c(=O)n3-c2cccc(OC(F)F)c2)CS(=O)(=O)C1 [Example 43, 1-(3-(Difluoromethoxy)phenyl)-N-(3-methyl-1,1-dioxidothietan-3-yl)-2-oxo-3-(2,2,2-trifluoroethyl)-2,3-dihydro-1H-benzo[d]imidazole-5-carboxamide] |
| 506 nM |  | CC(C)Oc1cccc(-n2c(=O)n(C(C)C)c3cc(C(=O)NC4(C)CCS(=O)(=O)CC4)cnc32)c1 [Example 101, 3-(3-isopropoxyphenyl)-1-isopropyl-N-(4-methyl-1,1-dioxo-thian-4-yl)-2-oxo-imidazo[4,5-b]pyridine-6-carboxamide] |
|  | 73.8 nM | CC(C)n1c(=O)n(-c2cccc(OC(F)F)c2)c2cc(F)c(C(=O)NC3(C)CCS(=O)(=O)CC3)cc21 [Example 112, 1-(3-(Difluoromethoxy)phenyl)-6-fluoro-3-isopropyl-N-(4-methyl-1,1-dioxidotetrahydro-2H-thiopyran-4-yl)-2-oxo-2,3-dihydro-1H-benzo[d]imidazole-5-carboxamide] |
|  | 56 nM | CC(C)n1c(=O)n(-c2cc(OC(F)F)ncc2F)c2cc(F)c(C(=O)NC3(C)CCS(=O)(=O)CC3)cc21 [Example 122, 1-(2-(difluoromethoxy)-5-fluoropyridin-4-yl)-6-fluoro-3-isopropyl-N-(4-methyl-1,1-dioxidotetrahydro-2H-thiopyran-4-yl)-2-oxo-2,3-dihydro-1H-benzo[d]imidazole-5-carboxamide] |
|  | 31 nM | CCOc1cc(-n2c(=O)n(C(C)C)c3cc(C(=O)NC4(C)CS(=O)(=O)C4)c(F)cc32)c(F)cn1 [Example 21, 1-(2-Ethoxy-5-fluoropyridin-4-yl)-6-fluoro-3-isopropyl-N-(3-methyl-1,1-dioxidothietan-3-yl)-2-oxo-2,3-dihydro-1H-benzo[d]imidazole-5-carboxamide] |
| 6.6 nM |  | CC(n1c(=O)n(-c2cc(OCC(F)F)ncc2F)c2ccc(C(=O)NC3(C)CCS(=O)(=O)CC3)cc21)C(C)(C)O (single isomer, unassigned) [Example 72b, 1-(2-(2,2-difluoroethoxy)-5-fluoropyridin-4-yl)-3-(3-hydroxy-3-methylbutan-2-yl)-N-(4-methyl-1,1-dioxidotetrahydro-2H-thiopyran-4-yl)-2-oxo-2,3-dihydro-1H-benzo[a]imidazole-5-carboxamide] |
|  | 573 nM | C[C@@]1(NC(=O)c2ccc3c(c2)n(-c2ccc(F)cc2)c(=O)n3-c2ccc(F)cc2)CCS(=O)(=O)C1 [Example 1, (R)-1,3-bis(4-fluorophenyl)-N-(3-methyl-1,1-dioxidotetrahydrothiophen-3-yl)-2-oxo-2,3-dihydro-1H-benzo[d]imidazole-5-carboxamide] |
| 80 nM |  | CC(C)n1c(=O)n(-c2cccc(OC(F)F)c2)c2cc(F)c(C(=O)N[C@@]3(C)CCS(=O)(=O)C3)cc21 [Example 114, (S)-1-(3-(Difluoromethoxy)phenyl)-6-fluoro-3-isopropyl-N-(3-methyl-1,1-dioxidotetrahydrothiophen-3-yl)-2-oxo-2,3-dihydro-1H-benzo[d]imidazole-5-carboxamide] |
|  | 551 nM | CC(C(N)=O)n1c(=O)n(-c2cccc(OC(F)F)c2)c2ccc(C(=O)NC3(C)CCS(=O)(=O)CC3)cc21 (single isomer, unassigned) [EX-85a, 3-(1-amino-1-oxopropan-2-yl)-1-(3-(difluoromethoxy)phenyl)-N-(4-methyl-1,1-dioxidotetrahydro-2H-thiopyran-4-yl)-2-oxo-2,3-dihydro-1H-benzo[d]imidazole-5-carboxamide] |
